Laboratory results reported in ChEMBL document CHEMBL4354835, “Selective Blockade of Neuronal BK (α + β4) Channels Preventing Epileptic Seizure” (J Med Chem, 2020).
Calls of active or inactive are those of the source. The calls are words filed in the database; no cut-off is given here.

Experiments:
Rattus norvegicus [1] = species on record: Rattus norvegicus; assay: (§1) Inhibition of C-Fos expression in PTZ-induced epileptic seizures Sprague-Dawley rat model assessed as inhibition of FLI-positive granular neurons in DG region of ipsilateral hippocampus at 10 uM compound infused into hippocampal region and 10 mins later injected with PTZ and measured after 2 hrs by immunohistochemistry; format: functional, organism-based
[2] = target: T1, KCNMA1/KCNMB4 (Rattus norvegicus) (UniProt Q62976+Q9ESK8); assay: Inhibition of BK alpha/beta-4 in PTZ-stimulated rat hippocampal pyramidal neurons assessed as slower decay of after hyperpolarization at 300 pA at -80mV holding potential measured after 10 mins by whole cell current clamp assay; format: protein-complex assay
Rattus norvegicus [3] = species on record: Rattus norvegicus; assay: (§2) Neuroprotective activity in PTZ-induced epileptic seizure Sprague-Dawley rat model assessed as inhibition of hippocampal destruction by measuring increase in Nissl stained granular neurons in contralateral hippocampus DG region compound infused into hippocampal region and 10 mins later injected with PTZ and measured after 3 days by Nissl staining based microscopic analysis; format: functional, organism-based
Rattus norvegicus [4] = species on record: Rattus norvegicus; assay: Effect on neuronal network in PTZ-induced epileptic seizures Sprague-Dawley rat model assessed as lowered PSD at beta wave band compound infused into hippocampal region and 10 mins later injected with PTZ and measured after 2 hrs by power spectral density analysis; format: functional, organism-based
KCNMA1/KCNMB4 = KCNMA1/KCNMB4 (Homo sapiens, UniProt Q12791+Q86W47); assay: Inhibition of human BK alpha/beta4 channel expressed in HEK293T cells assessed as K+ outward current fraction at 10 uM at -80 mV holding potential by whole cell patch clamp method relative to control; format: cell-based
Rattus norvegicus [5] = species on record: Rattus norvegicus; assay: as §1, with “contralateral” for “ipsilateral”; format: functional, organism-based
Rattus norvegicus [6] = species on record: Rattus norvegicus; assay: as §1, with “pyramidal” for “granular”, “CA3” for “DG”; format: functional, organism-based
Rattus norvegicus [7] = species on record: Rattus norvegicus; assay: Effect on neuronal network in PTZ-induced epileptic seizures Sprague-Dawley rat model assessed as lowered PSD at delta wave band compound infused into hippocampal region and 10 mins later injected with PTZ and measured after 2 hrs by power spectral density analysis; format: functional, organism-based
Rattus norvegicus [8] = species on record: Rattus norvegicus; assay: Effect on neuronal network in PTZ-induced epileptic seizures Sprague-Dawley rat model assessed as reduced total PSD frequency waves compound infused into hippocampal region and 10 mins later injected with PTZ and measured after 2 hrs by power spectral density analysis; format: functional, organism-based
Rattus norvegicus [9] = species on record: Rattus norvegicus; assay: as §2, with “pyramidal” for “granular”, “CA3” for “DG”; format: functional, organism-based
[10] = target: T2, Calcium-activated potassium channel subunit beta-4 (Homo sapiens, UniProt Q86W47); assay: Binding affinity to NT-495 fluorophore reagent labelled human BK beta4 (45 to 166 residues) incubated for 30 mins by microscale thermophoresis assay
T2 sequence (Q86W47 whole entry): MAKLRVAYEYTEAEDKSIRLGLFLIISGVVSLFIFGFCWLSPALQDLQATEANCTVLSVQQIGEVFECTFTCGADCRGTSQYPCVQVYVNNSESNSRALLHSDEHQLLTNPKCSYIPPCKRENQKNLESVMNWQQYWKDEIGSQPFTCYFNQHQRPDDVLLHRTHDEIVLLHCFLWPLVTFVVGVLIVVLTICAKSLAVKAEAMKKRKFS

[11] = target: T1, KCNMA1/KCNMB4 (Rattus norvegicus); assay: Inhibition of BK alpha/beta-4 in PTZ-stimulated rat hippocampal pyramidal neurons assessed as larger action potential width at 300 pA current injection at -80mV holding potential measured after 10 mins by whole cell current clamp assay; format: protein-complex assay
Rattus norvegicus [12] = species on record: Rattus norvegicus; assay: as §1, with “pyramidal” for “granular”, “CA3” for “DG”, “contralateral” for “ipsilateral”; format: functional, organism-based
Rattus norvegicus [13] = species on record: Rattus norvegicus; assay: Effect on neuronal network in PTZ-induced epileptic seizures Sprague-Dawley rat model assessed as lowered PSD at theta wave band compound infused into hippocampal region and 10 mins later injected with PTZ and measured after 2 hrs by power spectral density analysis; format: functional, organism-based
Rattus norvegicus [14] = species on record: Rattus norvegicus; assay: Effect on neuronal network in PTZ-induced epileptic seizures Sprague-Dawley rat model assessed as lowered PSD at alpha wave band compound infused into hippocampal region and 10 mins later injected with PTZ and measured after 2 hrs by power spectral density analysis; format: functional, organism-based
Rattus norvegicus [15] = species on record: Rattus norvegicus; assay: Anticonvulsant activity against PTZ-induced epileptic seizure Sprague-Dawley rat model assessed as duration of seizure compound infused into hippocampal region and 10 mins later injected with PTZ and measured for 2 hrs post PTZ-stimulation (reference value: 376 +/- 76.43 sec); format: functional
Rattus norvegicus [16] = species on record: Rattus norvegicus; assay: Effect on neuronal network in PTZ-induced epileptic seizures Sprague-Dawley rat model assessed as lowered PSD at gamma wave band compound infused into hippocampal region and 10 mins later injected with PTZ and measured after 2 hrs by power spectral density analysis; format: functional, organism-based
Rattus norvegicus [17] = species on record: Rattus norvegicus; assay: Anticonvulsant activity against PTZ-induced epileptic seizure Sprague-Dawley rat model assessed as latency time of seizures compound infused into hippocampal region and 10 mins later injected with PTZ and measured for 2 hrs post PTZ-stimulation (reference value: 108.5 +/- 8.63 sec); format: functional
Rattus norvegicus [18] = species on record: Rattus norvegicus; assay: Anticonvulsant activity against PTZ-induced epileptic seizures Sprague-Dawley rat model assessed as decrease in number of seizures at high stage (stage 4 and 5) compound infused into hippocampal region and 10 mins later injected with PTZ and measured for 2 hrs post-PTZ stimulation; format: functional, organism-based
Rattus norvegicus [19] = species on record: Rattus norvegicus; assay: as §2, with “pyramidal” for “granular”, “CA1” for “DG”; format: functional, organism-based
[20] = target: T1, KCNMA1/KCNMB4 (Rattus norvegicus); assay: Inhibition of BK alpha/beta-4 in PTZ-stimulated rat hippocampal pyramidal neurons assessed as increase in AHP size at 300 pA at -80mV holding potential measured after 10 mins by whole cell current clamp assay; format: protein-complex assay
Rattus norvegicus [21] = species on record: Rattus norvegicus; assay: Anticonvulsant activity against PTZ-induced epileptic seizure Sprague-Dawley rat model assessed as reduction in mortality rate compound infused into hippocampal region and 10 mins later injected with PTZ and measured for 2 hrs post PTZ-stimulation; format: functional, organism-based
Rattus norvegicus [22] = species on record: Rattus norvegicus; assay: Anticonvulsant activity against PTZ-induced epileptic seizure Sprague-Dawley rat model assessed as mortality rate compound infused into hippocampal region and 10 mins later injected with PTZ and measured for 2 hrs post PTZ-stimulation (reference value: 33.33%); format: functional

`CC[C@H](C)[C@H](NC(=O)[C@H](CC(C)C)NC(=O)CNC(=O)[C@H](Cc1ccccc1)NC(=O)[C@H](CO)NC(=O)CN)C(=O)N[C@@H](CC(=O)O)C(=O)N[C@H](C(=O)N[C@@H](CCCCN)C(=O)N[C@H]1CSSC[C@@H]2NC(=O)[C@H](CCCCN)NC(=O)CNC(=O)[C@H](CCC(N)=O)NC(=O)CNC(=O)[C@H](CO)NC(=O)CNC(=O)[C@H]([C@@H](C)O)NC(=O)[C@H](C(C)C)NC(=O)[C@H](CCC(=O)O)NC(=O)[C@H](CCCCN)NC(=O)[C@@H]3CSSC[C@@H](C(=O)N[C@@H](Cc4ccc(O)cc4)C(=O)O)N[C@@H](CCCNC(=N)N)C(=O)[C@H](CSSC[C@H](NC(=O)[C@H](CCC(=O)O)NC(=O)[C@H](CO)NC(=O)[C@H](CO)NC(=O)[C@H](C)NC(=O)[C@H](Cc4ccccc4)NC1=O)C(=O)N[C@@H](Cc1c[nH]c4ccccc14)C(=O)N[C@@H]([C@@H](C)O)C(=O)N[C@@H](C)C(=O)N3)N[C@@H](CCC(N)=O)C(=O)NC(=O)[C@H](CC(N)=O)NC(=O)[C@H](CC(N)=O)NC(=O)[C@H](CCC(N)=O)NC2=O)C(C)C` was tested, and the inhibition (Rattus norvegicus [1]) was “inactive”, the inhibition [2] was “inactive” and the Activity (Rattus norvegicus [3]) was “Active”. The Activity (Rattus norvegicus [4]) was “inactive”, the Ratio (KCNMA1/KCNMB4) was 0.8 and the inhibition (Rattus norvegicus [5]) was “inactive”. For the same molecule, the inhibition (Rattus norvegicus [6]) was “inactive”, the Activity (Rattus norvegicus [7]) was “inactive” and the inhibition (Rattus norvegicus [8]) was “inactive”. The Activity (Rattus norvegicus [9]) was “Active”, the Kd [10] was “Not Active” and the inhibition [11] was “Active”. The inhibition (Rattus norvegicus [12]) was “inactive”, the Activity (Rattus norvegicus [13]) was “inactive” and the Activity (Rattus norvegicus [14]) was “inactive”. For the same molecule, the Time (Rattus norvegicus [15]) was 316.66 to 353.33 s, the Activity (Rattus norvegicus [16]) was “Active” and the Time (Rattus norvegicus [17]) was 219.5 to 266.5 s. For the same molecule, the Activity (Rattus norvegicus [18]) was “inactive”, the Activity (Rattus norvegicus [19]) was “inactive” and the inhibition [20] was “inactive”. For the same molecule, the Activity (Rattus norvegicus [21]) was “inactive”.

For `CCCC(CCC)C(=O)O` [VALPROIC ACID], the mortality (Rattus norvegicus [22]) was 0%, the Time (Rattus norvegicus [15]) was 181.25 s and the Time (Rattus norvegicus [17]) was 156.63 s.
